In PMC12206033, “Selective inhibition of TRPV3 channel by natural rosmarinic acid and its analogs for alleviation of skin lesions through downregulation of NF-κB pathway” (The Journal of Biological Chemistry, 2025):

Molecular target: T1, hTRPV3 (Homo sapiens, UniProt Q8NET8)
T1 construct: expressed in transfected cells; host or cells: HEK293T
T1 sequence (Q8NET8 1-790): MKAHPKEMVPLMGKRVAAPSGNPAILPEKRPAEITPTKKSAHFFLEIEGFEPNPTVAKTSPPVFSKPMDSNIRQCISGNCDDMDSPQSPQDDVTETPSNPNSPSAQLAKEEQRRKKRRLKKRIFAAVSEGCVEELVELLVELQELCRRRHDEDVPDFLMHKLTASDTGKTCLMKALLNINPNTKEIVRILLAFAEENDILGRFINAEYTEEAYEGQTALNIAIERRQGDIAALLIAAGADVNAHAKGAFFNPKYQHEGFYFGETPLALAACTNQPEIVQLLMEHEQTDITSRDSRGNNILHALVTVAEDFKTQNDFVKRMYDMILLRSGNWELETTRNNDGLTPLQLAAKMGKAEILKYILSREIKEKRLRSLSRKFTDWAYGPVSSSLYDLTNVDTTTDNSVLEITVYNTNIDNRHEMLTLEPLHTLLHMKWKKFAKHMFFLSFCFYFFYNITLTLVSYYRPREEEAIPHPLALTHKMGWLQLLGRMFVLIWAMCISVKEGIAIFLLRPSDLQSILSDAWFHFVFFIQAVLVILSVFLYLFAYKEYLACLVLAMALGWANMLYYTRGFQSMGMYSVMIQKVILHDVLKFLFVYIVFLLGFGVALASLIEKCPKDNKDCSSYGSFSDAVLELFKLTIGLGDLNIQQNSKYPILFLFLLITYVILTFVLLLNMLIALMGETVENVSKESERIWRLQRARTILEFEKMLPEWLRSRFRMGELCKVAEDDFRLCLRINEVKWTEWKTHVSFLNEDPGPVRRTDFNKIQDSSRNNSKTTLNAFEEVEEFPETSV
Assay: single-channel inside-out patch recordings of hTRPV3 in HEK293T cells
Assay type: cell-based
Conditions: for single-channel open probability: n = 5
Description: HEK293T cell line was obtained from the Cell Resource Center, Peking Union Medical College. HEK293T cells were maintained in Dulbecco’s modified Eagle’s medium (DMEM, Gibco) supplemented with 10% fetal bovine serum at 37 °C with 5% CO2. HEK293T cells were seeded onto glass coverslips 1 day in advance and transiently transfected with […] complementary deoxyribonucleic acids of human TRPV3 (hTRPV3, accession number NM_145068.4), hTRPV1 (accession number NM_080704.3), mTRPV2 (accession number NM_011706.2), hTRPV4 (accession number NM_021625.5), hTRPA1 (accession number NM_007332.3), and hTRPM8 (accession number NM_024080.5) through Lipofectamine 2000 (Invitrogen) following the manufacture’s protocol. The next day, determine the plasmid transfection status by observing green fluorescence based on expression of enhanced GFP as an indicator. […] As for the relative fluorescence intensity, we convert the image to 8 bit grayscale using ImageJ (Https://imagej.net/software/fiji/downloads) and set an appropriate threshold value to reduce background noise and enhance the image contrast.
All patch-clamp recordings were conducted 16 to 24 h after transfection using an EPC10 amplifier powered by PatchMaster software (HEKA) (https://www.heka.com/downloads/downloads_main.html#down_patchmaster) at room temperature. The borosilicate glass pipettes were pulled using a DMZ universal electrode puller (Zeitz-Instruments GmbH) to achieve the resistances of three to 5 MΩ (for whole-cell recordings) or five to 9 MΩ (for inside-out patch recordings). Currents were recorded at a potential ramp from −100 mV to +100 mV for 1000 ms with 1000-ms intervals (for whole-cell recordings) or a persistent potential of −60 mV (inside-out patch recordings). Both pipette solution and bath solution contained (in mM): 130 NaCl, 3 Hepes, and 0.2 EDTA (pH = 7.2–7.4). All recording data were analyzed using Igor Pro (Wave-metrics) (https://www.wavemetrics.com/order/order_igordownloads.htm) and Origin 8.6 (Origin Lab) (https://www.originlab.com/doc/zh/Quick-Help/Download-Installer).

Compound: O=C(/C=C/c1ccc(O)c(O)c1)O[C@H](Cc1ccc(O)c(O)c1)C(=O)O [ROSA, rosmarinic acid]
- single-channel open probability (ROSA 100 μM co-perfused with 2-APB 50 μM): 0.13 ± 0.05
- single-channel open probability (ROSA 100 μM co-perfused with Car 300 μM): 0.28 ± 0.06
- effect on channel unitary conductance (ROSA 100 μM with 2-APB 50 μM or Car 300 μM): without altering the channel unitary conductance
